Patent US9062324B2, “Herbicide tolerant soybean plants and methods for identifying same” (M.S. TECHNOLOGIES LLC, priority 2009, dated 2015)

How the values were obtained:
[1] = test system: soybean plants comprising EE-GM3 and EE-GM2; assay: field trial of lines combining EE-GM3 and EE-GM2 sprayed with glyphosate and glufosinate; assay type: in vivo, Glycine max; conditions: approximately 40 lines homozygous for tolerance to both herbicides
From the text: A soybean plant containing a combination of elite events EE-GM3 and EE-GM2 has been obtained by conventional crossing between a parent soybean plant comprising EE-GM3 and a parent soybean plant comprising EE-GM2. Progeny plants comprising both events are identified using PCR Identification Protocols for EE-GM2 and EE-GM3 as described herein. Specifically, crosses were made with plants containing EE-GM3 and plants containing EE-GM2. The resulting F1 plants were crossed to 4 conventional lines. The F1s from these crosses were grown in the field and sprayed with glyphosate and glufosinate. F2 seed harvested from F1 plants resistant to both herbicides was then planted. The F2 plants were sprayed with both glyphosate and glufosinate. Nine hundred plants tolerant to both herbicides were harvested and planted in a field trial. Expected Mendelian segregation data for the events was obtained in this trial. Approximately 40 lines homozygous for tolerance to both herbicides were selected for agronomic uniformity for further studies.

[2] = test system: soybean plants comprising EE-GM3; assay: field trials of EE-GM3 in different commercial genetic backgrounds, herbicide challenge; assay type: in vivo, Glycine max; conditions: glyphosate and/or isoxaflutole, different treatments, different locations and genetic backgrounds
From the text: The selected event EE-GM3 was introduced in different commercial genetic backgrounds, and results of field trials on different locations were compared. Plants were challenged with glyphosate herbicide and/or isoxaflutole herbicide using different treatments. […] Hundreds of different soybean cultivars containing event EE-GM3 were used in an inheritance study, and herbicides were applied. Selected lines from this trial were later increased in the field and also treated with herbicide. From that trial, 50 selected lines were increased, and these were also herbicide treated.

For `CP(=O)(O)CCC(N)C(=O)O` (stereo not shown) [glufosinate], the “tolerance of selected homozygous lines to herbicide” value [1] was “good tolerance”.
`O=C(O)CNCP(=O)(O)O` [glyphosate] was tested, and the “herbicide tolerance of plants” value [2] was “good herbicide tolerance” and the “tolerance of selected homozygous lines to herbicide” value [1] was “good tolerance”.
`CS(=O)(=O)c1cc(C(F)(F)F)ccc1C(=O)c1cnoc1C1CC1` [IFT, (5-cyclopropyl-4-isoxazolyl)[2-(methylsulfonyl)-4-(trifluoromethyl)phenyl]methanone] was tested, and the “herbicide tolerance of plants” value [2] was “good herbicide tolerance”.
